Measured values as given in patent publication US11945822B2, “Pyrazolo-triazine and/or pyrazolo-pxrimidine derivatives as selective inhibitor of cyclin dependent kinase” (QURIENT CO., LTD., priority 2018, dated 2024).

Target: T1, CDK1/Cyclin B (Homo sapiens, UniProt P06493)
T1 construct: purchased Invitrogen PR4768C
Assay: Enzymatic assay for CDK1 (FRET based LANCE Ultra kinase assay)
Assay type: biochemical
Details: read-out: CDK1 enzymatic activity (IC50 activity range)
Procedure, shortened: (§1)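 Each CDK complex ([…]) phosphorylated 68 nM ULight-MBP peptide with ATP at Km for 60 min at 23° C., against 8 compound doses (4-fold dilutions). EDTA/Eu-anti-phospho-MBP detection, 60 min, then TR-FRET emission at 615 and 665 nm.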

T1 sequence (P06493 whole entry): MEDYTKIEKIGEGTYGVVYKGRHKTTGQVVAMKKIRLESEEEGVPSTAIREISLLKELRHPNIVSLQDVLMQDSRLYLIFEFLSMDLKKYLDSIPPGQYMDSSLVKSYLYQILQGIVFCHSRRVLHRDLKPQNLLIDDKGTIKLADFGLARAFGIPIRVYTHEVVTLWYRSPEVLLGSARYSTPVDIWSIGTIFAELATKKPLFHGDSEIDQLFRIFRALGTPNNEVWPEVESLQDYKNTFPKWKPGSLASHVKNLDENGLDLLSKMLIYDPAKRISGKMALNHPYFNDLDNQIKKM
T1 sequence (P14635 whole entry partner): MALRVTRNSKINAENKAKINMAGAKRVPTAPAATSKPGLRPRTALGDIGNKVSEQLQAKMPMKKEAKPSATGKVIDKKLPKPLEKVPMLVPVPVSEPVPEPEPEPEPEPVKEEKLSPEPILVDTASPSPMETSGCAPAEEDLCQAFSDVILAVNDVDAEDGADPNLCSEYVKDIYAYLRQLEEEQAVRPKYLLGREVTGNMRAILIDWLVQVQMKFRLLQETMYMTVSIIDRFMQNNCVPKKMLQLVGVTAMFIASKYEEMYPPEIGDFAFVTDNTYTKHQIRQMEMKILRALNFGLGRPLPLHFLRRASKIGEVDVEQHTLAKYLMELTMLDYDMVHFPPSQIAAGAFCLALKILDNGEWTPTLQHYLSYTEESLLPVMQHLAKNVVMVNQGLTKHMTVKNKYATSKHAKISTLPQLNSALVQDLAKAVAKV

IC50	SMILES
> 1000 nM	CC(C)c1cnn2c(NCc3ccccc3-c3cc4ccccc4[nH]3)nc(NCC3CNCCO3)nc12 (racemic) [Compound 274]
> 1000 nM	CC(C)c1cnn2c(NCc3c(Cl)cccc3-c3ncc(C(C)(C)O)s3)nc(N3CCC(N)CC3)nc12 [Compound 249]
> 1000 nM	CC(C)c1cnn2c(NCc3ccccc3-c3ccc4ccccc4n3)nc(O[C@H]3CC[C@H](O)CC3)nc12 [Compound 273]

Target: T2, CDK2/Cyclin A (Homo sapiens, UniProt P24941)
T2 construct: purchased Invitrogen PV6290
Assay: Enzymatic assay for CDK2 (FRET based LANCE Ultra kinase assay)
Assay type: biochemical
Details: read-out: CDK2 enzymatic activity (IC50 activity range)
Procedure, shortened: as §1

IC50	SMILES
> 1000 nM	CC(C)c1cnn2c(NCc3ccccc3-c3cc4ccccc4[nH]3)nc(NCC3CNCCO3)nc12 (racemic) [Compound 274]
> 1000 nM	CC(C)c1cnn2c(NCc3c(Cl)cccc3-c3ncc(C(C)(C)O)s3)nc(N3CCC(N)CC3)nc12 [Compound 249]
> 1000 nM	CC(C)c1cnn2c(NCc3ccccc3-c3ccc4ccccc4n3)nc(O[C@H]3CC[C@H](O)CC3)nc12 [Compound 273]

Target: T3, CDK5/p25 (Homo sapiens, UniProt Q00535)
T3 construct: purchased Invitrogen PR8543B
Assay: Enzymatic assay for CDK5 (FRET based LANCE Ultra kinase assay)
Assay type: biochemical
Details: read-out: CDK5 enzymatic activity (IC50 activity range)
Procedure, shortened: as §1

T3 sequence (Q00535 whole entry): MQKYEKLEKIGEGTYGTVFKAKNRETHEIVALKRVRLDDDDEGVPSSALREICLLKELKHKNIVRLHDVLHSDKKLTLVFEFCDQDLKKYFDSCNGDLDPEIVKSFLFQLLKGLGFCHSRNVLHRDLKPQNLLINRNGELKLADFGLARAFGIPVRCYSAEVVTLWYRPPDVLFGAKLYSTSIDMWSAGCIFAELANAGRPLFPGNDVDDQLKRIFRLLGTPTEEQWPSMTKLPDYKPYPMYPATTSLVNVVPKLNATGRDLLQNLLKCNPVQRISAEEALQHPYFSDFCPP
T3 sequence (Q15078 99-307 partner limits assumed): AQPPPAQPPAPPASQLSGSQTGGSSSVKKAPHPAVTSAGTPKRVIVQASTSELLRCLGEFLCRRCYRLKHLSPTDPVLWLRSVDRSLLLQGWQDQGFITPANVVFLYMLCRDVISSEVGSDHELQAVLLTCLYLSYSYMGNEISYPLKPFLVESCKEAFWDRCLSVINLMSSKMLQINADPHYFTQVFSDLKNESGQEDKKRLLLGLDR

IC50	SMILES
100 to 1000 nM	CC(C)c1cnn2c(NCc3ccccc3-c3cc4ccccc4[nH]3)nc(NCC3CNCCO3)nc12 (racemic) [Compound 274]
> 1000 nM	CC(C)c1cnn2c(NCc3c(Cl)cccc3-c3ncc(C(C)(C)O)s3)nc(N3CCC(N)CC3)nc12 [Compound 249]
> 1000 nM	CC(C)c1cnn2c(NCc3ccccc3-c3ccc4ccccc4n3)nc(O[C@H]3CC[C@H](O)CC3)nc12 [Compound 273]

Target: T4, CDK7/Cyclin H/MNAT1 (Homo sapiens, UniProt P50613)
T4 construct: purchased Invitrogen PR6749B
Assay: Enzymatic assay for CDK7 (FRET based LANCE Ultra kinase assay)
Assay type: biochemical
Details: CDK1/CDK7
Procedure, shortened: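 Inhibition was measured at Km ATP by time-resolved FRET between a Eu anti-phospho antibody and a phosphorylated ULight peptide. The enzyme was the purified CDK7/cyclin complex, and data were curve-fitted.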

T4 sequence (P50613 whole entry): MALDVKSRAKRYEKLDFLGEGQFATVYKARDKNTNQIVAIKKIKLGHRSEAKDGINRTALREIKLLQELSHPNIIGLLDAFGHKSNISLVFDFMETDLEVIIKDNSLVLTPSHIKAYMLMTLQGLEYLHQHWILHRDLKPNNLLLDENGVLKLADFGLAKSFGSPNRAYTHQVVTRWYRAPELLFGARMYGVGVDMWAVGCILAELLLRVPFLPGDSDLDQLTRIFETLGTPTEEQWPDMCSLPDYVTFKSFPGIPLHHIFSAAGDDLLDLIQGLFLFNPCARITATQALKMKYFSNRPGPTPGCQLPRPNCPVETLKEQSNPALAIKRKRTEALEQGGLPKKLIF
T4 sequence (P51946 whole entry partner): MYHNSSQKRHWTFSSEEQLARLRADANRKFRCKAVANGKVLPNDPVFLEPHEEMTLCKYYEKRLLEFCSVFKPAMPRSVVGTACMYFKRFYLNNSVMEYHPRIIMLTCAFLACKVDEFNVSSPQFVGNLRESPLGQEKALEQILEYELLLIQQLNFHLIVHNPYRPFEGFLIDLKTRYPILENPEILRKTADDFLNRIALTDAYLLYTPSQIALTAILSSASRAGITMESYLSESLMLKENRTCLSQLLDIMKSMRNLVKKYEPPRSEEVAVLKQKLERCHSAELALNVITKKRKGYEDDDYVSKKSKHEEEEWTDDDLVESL
T4 sequence (P51948 whole entry partner): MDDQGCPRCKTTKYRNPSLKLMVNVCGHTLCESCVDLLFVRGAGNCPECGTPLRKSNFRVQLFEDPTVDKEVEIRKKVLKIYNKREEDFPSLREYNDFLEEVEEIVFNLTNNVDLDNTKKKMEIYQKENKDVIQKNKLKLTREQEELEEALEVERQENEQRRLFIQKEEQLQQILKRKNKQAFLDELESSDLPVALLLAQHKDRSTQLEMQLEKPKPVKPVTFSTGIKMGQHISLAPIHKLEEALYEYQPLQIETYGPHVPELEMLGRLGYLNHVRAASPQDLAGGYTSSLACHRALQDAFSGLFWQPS

CDK1/CDK7: Selectivity of CDK7 inhibition over CDK1 inhibition	SMILES
A (A=greater than 200 fold)	CC(C)c1cnn2c(NCc3ccccc3-c3cc4ccccc4[nH]3)nc(NCC3CNCCO3)nc12 (racemic) [Compound 274]
A (A=greater than 200 fold)	CC(C)c1cnn2c(NCc3c(Cl)cccc3-c3ncc(C(C)(C)O)s3)nc(N3CCC(N)CC3)nc12 [Compound 249]
A (A=greater than 200 fold)	CC(C)c1cnn2c(NCc3ccccc3-c3ccc4ccccc4n3)nc(O[C@H]3CC[C@H](O)CC3)nc12 [Compound 273]

Same assay, conditions: CDK2/CDK7

CDK2/CDK7: Selectivity of CDK7 inhibition over CDK2 inhibition	SMILES
A (A=greater than 200 fold)	CC(C)c1cnn2c(NCc3c(Cl)cccc3-c3ncc(C(C)(C)O)s3)nc(N3CCC(N)CC3)nc12 [Compound 249]
A (A=greater than 200 fold)	CC(C)c1cnn2c(NCc3ccccc3-c3ccc4ccccc4n3)nc(O[C@H]3CC[C@H](O)CC3)nc12 [Compound 273]

SMILES	CDK2/CDK7: Selectivity of CDK7 inhibition over CDK2 inhibition
CC(C)c1cnn2c(NCc3ccccc3-c3cc4ccccc4[nH]3)nc(NCC3CNCCO3)nc12 (racemic) [Compound 274]	B (B=less than 200 fold, but greater than 20 fold)

Same assay, conditions: CDK5/CDK7

CDK5/CDK7: Selectivity of CDK7 inhibition over CDK5 inhibition	SMILES
A (A=greater than 200 fold)	CC(C)c1cnn2c(NCc3c(Cl)cccc3-c3ncc(C(C)(C)O)s3)nc(N3CCC(N)CC3)nc12 [Compound 249]
A (A=greater than 200 fold)	CC(C)c1cnn2c(NCc3ccccc3-c3ccc4ccccc4n3)nc(O[C@H]3CC[C@H](O)CC3)nc12 [Compound 273]

SMILES	CDK5/CDK7: Selectivity of CDK7 inhibition over CDK5 inhibition
CC(C)c1cnn2c(NCc3ccccc3-c3cc4ccccc4[nH]3)nc(NCC3CNCCO3)nc12 (racemic) [Compound 274]	B (B=less than 200 fold, but greater than 20 fold)

Same assay, conditions: read-out: CDK7 enzymatic activity (IC50 activity range)

IC50	SMILES
< 100 nM	CC(C)c1cnn2c(NCc3ccccc3-c3cc4ccccc4[nH]3)nc(NCC3CNCCO3)nc12 (racemic) [Compound 274]
< 100 nM	CC(C)c1cnn2c(NCc3c(Cl)cccc3-c3ncc(C(C)(C)O)s3)nc(N3CCC(N)CC3)nc12 [Compound 249]
< 100 nM	CC(C)c1cnn2c(NCc3ccccc3-c3ccc4ccccc4n3)nc(O[C@H]3CC[C@H](O)CC3)nc12 [Compound 273]

Tested on: H460
Assay: Cellular H460 viability assay (CellTiter-Glo, 72 hours)
Assay type: cell-based
Details: Homo sapiens, NCI-H460
Procedure, shortened: (§2)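 Luminescent ATP read-out (CellTiter-Glo) after 72 h compound exposure at 37 °C/5% CO2; duplicate wells; vehicle control DMSO <0.1% final; seeding density set per cell line.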

IC50	SMILES
< 1000 nM	CC(C)c1cnn2c(NCc3ccccc3-c3cc4ccccc4[nH]3)nc(NCC3CNCCO3)nc12 (racemic) [Compound 274]
< 1000 nM	CC(C)c1cnn2c(NCc3c(Cl)cccc3-c3ncc(C(C)(C)O)s3)nc(N3CCC(N)CC3)nc12 [Compound 249]
1000 to 10000 nM	CC(C)c1cnn2c(NCc3ccccc3-c3ccc4ccccc4n3)nc(O[C@H]3CC[C@H](O)CC3)nc12 [Compound 273]

Tested on: MV4-11
Assay: Cellular MV4-11 viability assay (CellTiter-Glo, 72 hours)
Assay type: cell-based
Details: Homo sapiens
Procedure, shortened: as §2

IC50	SMILES
< 1000 nM	CC(C)c1cnn2c(NCc3ccccc3-c3cc4ccccc4[nH]3)nc(NCC3CNCCO3)nc12 (racemic) [Compound 274]
< 1000 nM	CC(C)c1cnn2c(NCc3c(Cl)cccc3-c3ncc(C(C)(C)O)s3)nc(N3CCC(N)CC3)nc12 [Compound 249]
1000 to 10000 nM	CC(C)c1cnn2c(NCc3ccccc3-c3ccc4ccccc4n3)nc(O[C@H]3CC[C@H](O)CC3)nc12 [Compound 273]

Tested on: RPMI-8226
Assay: Cellular RPMI-8226 viability assay (CellTiter-Glo, 72 hours)
Assay type: cell-based
Details: Homo sapiens
Procedure, shortened: as §2

IC50	SMILES
1000 to 10000 nM	CC(C)c1cnn2c(NCc3ccccc3-c3cc4ccccc4[nH]3)nc(NCC3CNCCO3)nc12 (racemic) [Compound 274]

Tested on: A2780
Assay: Cellular A2780 viability assay (CellTiter-Glo, 72 hours)
Assay type: cell-based
Details: Homo sapiens
Procedure, shortened: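 Compound exposure lasted 72 h at 37° C, 5% CO2, over 0.0015–10 uM, DMSO kept under 0.1%, with dosing 24 h after seeding. Seeding: A2780 1×10^3, OVCAR-3 5×10^3, MM.1S 1×10^4 cells/well in 10% FBS RPMI-1640. Duplicate CellTiter-Glo luminescence readout.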

IC50	SMILES
≤ 1000 nM	CC(C)c1cnn2c(NCc3ccccc3-c3cc4ccccc4[nH]3)nc(NCC3CNCCO3)nc12 (racemic) [Compound 274]
≤ 1000 nM	CC(C)c1cnn2c(NCc3c(Cl)cccc3-c3ncc(C(C)(C)O)s3)nc(N3CCC(N)CC3)nc12 [Compound 249]
1000 to 10000 nM	CC(C)c1cnn2c(NCc3ccccc3-c3ccc4ccccc4n3)nc(O[C@H]3CC[C@H](O)CC3)nc12 [Compound 273]
